Counter-ions that a name gives are not always drawn. Like-named read-outs stand apart in the source and are kept apart here.
Assays:
[1] = molecular target: T1, muscle-like nicotinic receptors (human clonal line TE671/RD) (Homo sapiens, UniProt P02708+P07510+Q07001); test: cell-based; conditions: for Emax: read-out: HUMAN MUSCLE Emax (maximal activation as percentage of that induced by acetylcholine); for potency relative to succinylcholine, in words: comparison of EC50 values with Sample No. C-2; for efficacy relative to succinylcholine, in words: comparison of Emax values with Sample No. C-2
T1 construct: these cells express muscle-like nicotinic receptors; endogenous in cells; host or cells: TE671/RD (human embryonal rhabdomyosarcoma line)
Method: (§1) The selectivity at muscle nicotinic receptors of the various analogs described in this invention was determined by their functional efficacies and potencies at muscle and ganglionic sites.
(§2) Intact cells on dishes were used for functional studies.
(§3) The medium was removed and ^86 Rb^+ was quantitated using Cerenkov detection. […] Specific ion efflux was determined as the difference in isotope efflux between total and non-specific efflux samples. Dose-response curves were plotted and the concentration resulting in half maximal activation of specific ion flux through nicotinic receptors determined for human muscle and rat ganglionic preparations (EC50).

[2] = system: ganglionic-type neuronal nicotinic receptors (rat pheochromocytoma clonal line PC12); assay type: cell-based
Method: as §1
Ganglionic effects were established on the rat pheochromocytoma clonal line PC12 which is a continuous clonal cell line of neural crest origin derived from a tumor of the rat adrenal medulla expressing ganglionic-type neuronal nicotinic receptors. […] Discussion concerning the heterogeneity of nicotinic receptors subtypes is set forth in Lukas et al., Internatl. […] See, Fornasari et al., Neurosci.
as §2, §3

[3] = human muscle, TE671/RD, 86Rb+ efflux, 4 minutes at 20° C., read-out: HUMAN MUSCLE EC50 (concentration resulting in half maximal activation of specific ion flux)
[4] = rat ganglia, PC12, 86Rb+ efflux, 4 minutes at 20° C.; read-out: RAT GANGLIA EC50 (concentration resulting in half maximal activation of specific ion flux)

T1 sequence (P07510 23-517): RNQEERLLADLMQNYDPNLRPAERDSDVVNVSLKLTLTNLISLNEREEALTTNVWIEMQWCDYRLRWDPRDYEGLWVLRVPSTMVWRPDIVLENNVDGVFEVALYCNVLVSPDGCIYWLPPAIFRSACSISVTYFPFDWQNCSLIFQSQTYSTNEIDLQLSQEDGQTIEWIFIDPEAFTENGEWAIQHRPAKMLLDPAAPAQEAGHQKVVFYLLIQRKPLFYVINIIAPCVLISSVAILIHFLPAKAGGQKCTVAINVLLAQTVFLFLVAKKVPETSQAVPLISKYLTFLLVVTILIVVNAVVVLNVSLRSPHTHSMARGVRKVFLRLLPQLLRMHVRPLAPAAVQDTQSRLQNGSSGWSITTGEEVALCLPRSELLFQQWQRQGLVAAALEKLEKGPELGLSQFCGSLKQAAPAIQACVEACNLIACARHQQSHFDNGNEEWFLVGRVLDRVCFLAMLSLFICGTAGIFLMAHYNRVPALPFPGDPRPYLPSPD
T1 sequence (P02708 21-457): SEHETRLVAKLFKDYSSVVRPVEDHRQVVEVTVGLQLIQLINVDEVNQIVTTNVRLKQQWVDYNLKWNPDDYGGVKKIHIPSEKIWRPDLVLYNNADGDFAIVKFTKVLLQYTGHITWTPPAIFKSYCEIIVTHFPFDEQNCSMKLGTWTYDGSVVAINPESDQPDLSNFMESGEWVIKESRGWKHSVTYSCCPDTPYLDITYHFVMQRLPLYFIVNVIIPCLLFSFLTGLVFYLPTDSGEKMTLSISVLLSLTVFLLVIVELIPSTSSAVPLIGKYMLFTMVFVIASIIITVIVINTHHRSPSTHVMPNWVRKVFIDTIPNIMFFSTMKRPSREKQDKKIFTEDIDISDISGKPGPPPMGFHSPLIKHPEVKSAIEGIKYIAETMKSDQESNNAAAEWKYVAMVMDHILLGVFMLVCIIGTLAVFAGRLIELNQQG
T1 sequence (Q07001 22-517): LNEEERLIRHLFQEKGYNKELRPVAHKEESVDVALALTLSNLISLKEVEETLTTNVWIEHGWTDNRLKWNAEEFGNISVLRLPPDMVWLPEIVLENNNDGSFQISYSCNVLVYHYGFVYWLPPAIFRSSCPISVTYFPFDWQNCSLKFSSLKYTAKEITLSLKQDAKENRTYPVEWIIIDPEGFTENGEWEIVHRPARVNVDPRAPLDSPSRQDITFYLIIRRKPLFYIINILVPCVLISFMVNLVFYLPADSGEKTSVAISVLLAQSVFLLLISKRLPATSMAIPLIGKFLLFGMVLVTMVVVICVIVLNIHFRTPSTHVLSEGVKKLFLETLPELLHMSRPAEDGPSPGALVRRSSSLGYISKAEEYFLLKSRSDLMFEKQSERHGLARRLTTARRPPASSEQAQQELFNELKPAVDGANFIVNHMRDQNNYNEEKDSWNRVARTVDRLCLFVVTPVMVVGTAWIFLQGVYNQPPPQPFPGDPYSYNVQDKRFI

SMILES | Emax ([1]; TE671/RD) | EC50 [1, 3] | potency relative to succinylcholine, in words ([1]; human muscle) | efficacy relative to succinylcholine, in words ([1]; human muscle) | RAT GANGLIA Emax (maximal activation as percentage of that induced by acetylcholine) [2] | EC50 [1] | ganglionic effects, in words ([2]; ganglionic-type receptors) | RAT GANGLIA Emax (maximal activation as percentage of that induced by acetylcholine) ([2]; rat ganglia, PC12, % of acetylcholine maximum) | EC50 ([2]; read-out: RAT GANGLIA EC50 (concentration resulting in half maximal activation of specific ion flux); rat ganglia, PC12, 86Rb+ efflux, 4 minutes at 20° C.) | EC50 [2, 4]
Fc1cncc(C2CCCN2)c1 (racemic) [Sample No. 5, (+/-)-5-fluoronornicotine] | 160% | 30 µM | at least as potent as succinylcholine | more efficacious than succinylcholine | < 10% |  |  |  |  | 
c1cncc(C2=NCCCC2)c1 [Sample No. 3, anabaseine dihydrochloride] | 200% |  | more potent | more efficacious than succinylcholine |  | 2 µM | only at relatively high concentrations | 80% | 50 µM | 
C[N+](C)(C)CCOC(=O)CCC(=O)OCC[N+](C)(C)C [Sample No. C-2, succinylcholine chloride, reference compound] | 95% | 30 µM |  |  | 0% |  |  |  |  | 
CC(=O)OCC1CC2CCN1CC2.[O-][Cl+3]([O-])([O-])O (racemic) [Sample No. 4, (+/-)-2-acetoxymethylquinuclidine perchlorate] | 200% | 3 µM | more potent | more efficacious than succinylcholine | 60% |  | only at relatively high concentrations |  |  | 50 µM
CC(=O)OCC[N+](C)(C)C [C-1, acetylcholine, reference compound] |  |  |  |  | 100% |  |  |  |  | 
O=C(O)/C=C/C(=O)O.O=C(O)/C=C/C(=O)O.c1cncc(C2CC3CCN2CC3)c1 (racemic) [Sample No. 1, (+/-)-2-(3-pyridyl)-quinuclidine difumarate] | 130% | 0.055 µM | more potent | more efficacious than succinylcholine | 100% |  | only at relatively high concentrations |  |  | 2 µM
Fc1cncc(C2=NCCCC2)c1 [Sample No. 2, 5-fluoroanabaseine dipicrate] | 220% | 1 µM | very potent relative to succinylcholine | very efficacious relative to succinylcholine | 0% |  | no observed ganglionic effects |  |  | 
CN1CCCC1c1cncc(Cl)c1.[O-][Cl+3]([O-])([O-])O (racemic) [Sample No. 6, (+/-)-5-chloronicotine perchlorate] | 110% | 30 µM | at least as potent as succinylcholine | more efficacious than succinylcholine | 0% |  |  |  |  | 
